Legend:
[1] = system: leaf discs of the common lawn weed Plantiago major; assay: Leaf disc bioassay, Plantiago major leaf discs; set-up: key to necrosis and chlorosis 18 HAT / necrosis and chlorosis 36 HAT: 0: no damage; +: minor damages; ++: severe damages on up to 50% of leave surface; +++: damages on more than 50% of leave surface; ++++: 100% damage
Description: (§1) The plants and leaves were visually assessed for damages by necrosis and chlorosis with the following scale for evaluation: • 0: no damage • +: minor damages • ++: severe damages on up to 50% of leave surface • +++: damages on more than 50% of leave surface • ++++: 100% damage
5 mm discs were cut from leaves of plants from Plantiago major, Sesamum indicum, Aegopodium potagraria and Chelidonium majus using a paper punch (5 mm). 3 leaf discs of 5 mm Ø were placed in each well of 12-well microtiter plates. Each well containing 2 ml deionized H2O, or solutions of various concentrations of glyphosate, 2,4-D or synergistic mixtures (M). The plates were incubated under continuous light at 20° C. for the listed times. The leaf discs were visually assessed for chlorosis and necrosis at various times after treatment according to the scale for classification. The visual rating utilized a rating scale from 0 to ++++, where 0=no damage by necrosis/chlorosis, and ++++=total damage by chlorosis/necrosis (see Literature).
3 leaf discs of 5 mm Ø were placed in each well of 12-well microtiter plates. Each well containing 2 ml deionized H2O, or solutions of various concentrations of 2,4-D or synergistic mixture M4 with a 1:1 mixture of citric acid and SDS. The plates were incubated under continuous light at 20° C. for the listed times. The leaf discs were visually assessed for chlorosis and necrosis according to the scale for classification and listed for hours after treatment (HAT). The visual rating utilized a rating scale from 0 to ++++, where 0=no damage by necrosis/chlorosis, and ++++=total damage by chlorosis/necrosis.

plant leaves = assay: Different tests (leaf disc bioassays, growth chamber trials, field trials), summary; conditions: herbicide alone at a concentration of 0.1% to 0.25%
Method: The activity of the synergistic mixtures to enhance the efficacy of herbicides was tested in vitro by leaf disc bioassays, in growth chamber trials with seedlings and in field trials with various different weed species.
as §1

[2] = application rate 0.1 % of volume
[3] = application rate 0.25 % of volume
[4] = application rate 0.5 % of volume

O=C(O)COc1ccc(Cl)cc1Cl [2,4-D, 2,4-dichlorophenoxyacetic acid]
necrosis and chlorosis 18 HAT [1, 2]: 0 | necrosis and chlorosis 36 HAT [1, 2]: 0 | necrosis and chlorosis 18 HAT [1, 3]: 0 | necrosis and chlorosis 36 HAT [1, 3]: 0 | necrosis and chlorosis 18 HAT [1, 4]: 0 | necrosis and chlorosis 36 HAT [1, 4]: 0 | damage of the leaf discs ([1]; substance alone, conditions of Table 4): do not show efficient damage | damage of plant leaves (plant leaves): did not show any significant damage

Reference: US20180116213A1 (priority 2015, published 2018)
